Experimental data published in article PMC8569553, “An improved assay to measure the phospholipid transfer activity of microsomal triglyceride transport protein” (Journal of Lipid Research, 2021).
Substitutions are numbered along the chain they refer to.

Experiments:
[1] = molecular target: T1, human microsomal triglyceride transfer protein (hMTP) N649S mutant (Homo sapiens, UniProt P55157, N649S); experiment: NBD-lipid TAG and PL transfer assay in Cos-7 lysate, […] lomitapide; type: cell-based
T1 construct: gene MTTP; expressed in Cos-7 cells, lysate
T1 sequence (P55157 19-894 N649S): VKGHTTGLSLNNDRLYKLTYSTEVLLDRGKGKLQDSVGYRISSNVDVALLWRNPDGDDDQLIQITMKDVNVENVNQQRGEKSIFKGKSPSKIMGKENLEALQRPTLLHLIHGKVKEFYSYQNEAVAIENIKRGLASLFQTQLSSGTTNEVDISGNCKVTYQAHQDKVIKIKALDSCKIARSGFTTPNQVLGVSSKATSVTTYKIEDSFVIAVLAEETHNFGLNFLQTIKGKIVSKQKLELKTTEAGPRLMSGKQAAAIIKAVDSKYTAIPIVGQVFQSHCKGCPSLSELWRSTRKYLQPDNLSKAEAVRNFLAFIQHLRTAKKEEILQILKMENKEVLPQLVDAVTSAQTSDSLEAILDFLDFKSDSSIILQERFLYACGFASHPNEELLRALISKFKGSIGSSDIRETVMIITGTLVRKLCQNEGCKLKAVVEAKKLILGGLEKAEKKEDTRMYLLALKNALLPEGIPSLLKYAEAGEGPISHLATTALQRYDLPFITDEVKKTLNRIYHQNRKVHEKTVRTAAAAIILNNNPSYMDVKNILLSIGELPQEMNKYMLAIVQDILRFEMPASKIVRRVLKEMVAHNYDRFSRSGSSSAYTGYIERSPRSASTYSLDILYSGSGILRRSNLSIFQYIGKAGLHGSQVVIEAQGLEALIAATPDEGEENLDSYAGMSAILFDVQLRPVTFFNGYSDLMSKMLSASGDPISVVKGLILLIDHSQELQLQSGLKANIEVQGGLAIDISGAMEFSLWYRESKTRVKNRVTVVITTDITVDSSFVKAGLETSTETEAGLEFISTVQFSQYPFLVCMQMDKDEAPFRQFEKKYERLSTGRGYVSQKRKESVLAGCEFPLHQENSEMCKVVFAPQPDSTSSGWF

[2] = molecular target: T2, human microsomal triglyceride transfer protein (hMTP) (Homo sapiens, UniProt P55157); experiment: fluorescent NBD-lipid vesicle transfer assay (PL and TAG) with purified MTP; type: biochemical
T2 construct: gene MTTP; hMTP-FLAG, purified from Cos-7 cells; with protein disulphide isomerase (PDI, β subunit)
T2 sequence (P55157 19-894): T1 sequence (P55157 19-894 N649S) with S631N

[3] = molecular target: T3, mouse microsomal triglyceride transfer protein (mMTP) (Mus musculus, UniProt O08601); experiment: NBD-lipid TAG and PL transfer assay in liver homogenate with Mttp knockout control, […] lomitapide; type: cell-based
T3 construct: gene Mttp; endogenous, liver homogenate
T3 sequence (O08601 22-894): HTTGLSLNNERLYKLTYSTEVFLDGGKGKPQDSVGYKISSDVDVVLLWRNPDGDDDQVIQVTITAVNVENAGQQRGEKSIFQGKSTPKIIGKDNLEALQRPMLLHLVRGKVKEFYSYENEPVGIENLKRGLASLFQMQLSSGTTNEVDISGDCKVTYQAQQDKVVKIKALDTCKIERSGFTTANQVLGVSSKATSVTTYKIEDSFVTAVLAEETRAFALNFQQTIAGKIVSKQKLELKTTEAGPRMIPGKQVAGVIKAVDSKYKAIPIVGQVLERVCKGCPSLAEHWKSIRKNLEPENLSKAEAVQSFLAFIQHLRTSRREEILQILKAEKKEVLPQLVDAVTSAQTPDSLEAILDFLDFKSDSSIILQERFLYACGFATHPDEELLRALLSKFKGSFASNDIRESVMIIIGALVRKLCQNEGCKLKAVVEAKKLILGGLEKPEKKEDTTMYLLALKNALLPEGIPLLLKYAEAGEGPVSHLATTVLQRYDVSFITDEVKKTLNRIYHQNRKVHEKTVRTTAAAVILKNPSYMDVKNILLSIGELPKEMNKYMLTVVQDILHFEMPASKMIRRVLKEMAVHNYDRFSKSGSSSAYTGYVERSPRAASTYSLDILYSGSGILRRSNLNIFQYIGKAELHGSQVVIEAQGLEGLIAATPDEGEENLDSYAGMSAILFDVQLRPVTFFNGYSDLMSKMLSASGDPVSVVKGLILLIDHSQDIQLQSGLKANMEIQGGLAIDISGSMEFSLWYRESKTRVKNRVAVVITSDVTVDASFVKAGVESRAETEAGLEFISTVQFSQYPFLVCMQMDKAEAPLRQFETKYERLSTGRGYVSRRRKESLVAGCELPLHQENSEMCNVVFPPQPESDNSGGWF
T3 sequence (P09103 20-509 partner): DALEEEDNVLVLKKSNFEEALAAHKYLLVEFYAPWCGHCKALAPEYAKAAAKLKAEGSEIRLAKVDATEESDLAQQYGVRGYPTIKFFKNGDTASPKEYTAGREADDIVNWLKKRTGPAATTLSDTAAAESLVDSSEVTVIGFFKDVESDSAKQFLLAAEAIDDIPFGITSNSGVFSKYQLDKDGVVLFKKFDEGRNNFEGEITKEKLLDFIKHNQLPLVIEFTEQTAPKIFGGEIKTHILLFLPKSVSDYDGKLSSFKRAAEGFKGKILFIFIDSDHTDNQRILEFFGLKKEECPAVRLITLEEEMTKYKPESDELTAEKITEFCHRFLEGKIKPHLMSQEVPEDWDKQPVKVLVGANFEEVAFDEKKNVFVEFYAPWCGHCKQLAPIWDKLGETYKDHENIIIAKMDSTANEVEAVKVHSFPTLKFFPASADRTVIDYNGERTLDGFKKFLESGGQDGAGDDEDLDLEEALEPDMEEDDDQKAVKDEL

Drosophila MTP (dMTP) = molecular target: T4, Drosophila MTP (dMTP) (Drosophila melanogaster, UniProt Q9VIH3); experiment: NBD-PE PL transfer assay in Cos-7 lysate, […] lomitapide (partial inhibition); type: cell-based
T4 construct: expressed in Cos-7 cells, lysate
T4 sequence (Q9VIH3 28-886): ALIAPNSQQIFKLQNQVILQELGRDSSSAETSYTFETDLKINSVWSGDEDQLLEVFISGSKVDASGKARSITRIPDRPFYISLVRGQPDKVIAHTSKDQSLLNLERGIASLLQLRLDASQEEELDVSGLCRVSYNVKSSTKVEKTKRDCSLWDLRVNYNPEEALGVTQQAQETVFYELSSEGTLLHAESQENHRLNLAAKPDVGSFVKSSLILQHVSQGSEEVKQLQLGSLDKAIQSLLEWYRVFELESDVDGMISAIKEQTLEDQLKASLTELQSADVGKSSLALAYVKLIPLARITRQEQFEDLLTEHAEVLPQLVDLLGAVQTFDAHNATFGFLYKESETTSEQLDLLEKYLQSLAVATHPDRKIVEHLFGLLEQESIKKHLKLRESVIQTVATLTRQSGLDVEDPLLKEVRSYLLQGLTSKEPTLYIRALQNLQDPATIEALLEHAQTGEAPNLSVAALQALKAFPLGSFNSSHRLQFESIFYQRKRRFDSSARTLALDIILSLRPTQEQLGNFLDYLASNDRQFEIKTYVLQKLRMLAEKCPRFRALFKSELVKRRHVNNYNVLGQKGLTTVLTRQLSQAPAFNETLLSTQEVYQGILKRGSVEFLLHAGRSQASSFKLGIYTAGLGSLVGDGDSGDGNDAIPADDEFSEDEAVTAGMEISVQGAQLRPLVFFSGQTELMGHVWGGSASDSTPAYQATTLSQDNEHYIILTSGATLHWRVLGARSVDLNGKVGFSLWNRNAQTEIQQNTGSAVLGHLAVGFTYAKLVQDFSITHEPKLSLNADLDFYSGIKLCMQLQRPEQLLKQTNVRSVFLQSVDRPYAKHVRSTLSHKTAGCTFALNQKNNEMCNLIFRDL

Question: What does the source list for O=C(NC1CCN(CCCCC2(C(=O)NCC(F)(F)F)c3ccccc3-c3ccccc32)CC1)c1ccccc1-c1ccc(C(F)(F)F)cc1 [lomitapide]?
Answer: NBD-lipid TAG and PL transfer assay in Cos-7 lysate, 1 μM lomitapide [1]: resulted in significantly lower TAG transfer activity, which was completely inhibited by lomitapide; IC50 [2]: 10 nM; NBD-lipid TAG and PL transfer assay in liver homogenate with Mttp knockout contr [3]: substantial TAG transfer activity in Mttp^fl/fl liver tissue, and this activity was inhibited by lomitapide; NBD-PE PL transfer assay in Cos-7 lysate, 1 μM lomitapide (partial inhibition) (Drosophila MTP (dMTP)): This activity was partially inhibited by lomitapide.
